# Laboratory results reported in ChEMBL document CHEMBL4422646, “Synthesis and biological evaluation of 3-amino-, 3-alkoxy- and 3-aryloxy-6-(hetero)arylpyridazines as potent antitumor agents” (Bioorg Med Chem Lett, 2019).
# Key:
# MDA-MB-231 = assay: Antiproliferative activity against human MDA-MB-231 cells after 48 hrs by Hoechst 33342 staining-based assay; type: functional, cell-based; conditions: MDA-MB-231, 48 h
# Fibroblast = assay: Antiproliferative activity against human fibroblast cells after 48 hrs by Hoechst 33342 staining-based assay; type: cell-based
# Caco-2 = assay: Antiproliferative activity against human Caco2 cells after 48 hrs by Hoechst 33342 staining-based assay; type: functional, cell-based; conditions: Caco-2, 48 h
# HCT-116 = assay: Antiproliferative activity against human HCT116 cells after 48 hrs by Hoechst 33342 staining-based assay; type: functional, cell-based; conditions: HCT-116, 48 h
# HaCaT = assay: Antiproliferative activity against human HaCaT cells after 48 hrs by Hoechst 33342 staining-based assay; type: cell-based
# NCI-H727 = assay: Antiproliferative activity against human NCI-H727 cells after 48 hrs by Hoechst 33342 staining-based assay; type: functional, cell-based; conditions: NCI-H727, 48 h
# PC-3 = assay: Antiproliferative activity against human PC3 cells after 48 hrs by Hoechst 33342 staining-based assay; type: functional, cell-based; conditions: PC-3, 48 h
# Huh-7 [1] = assay: Antiproliferative activity against human HuH7 cells after 48 hrs by Hoechst 33342 staining-based assay; type: functional, cell-based; conditions: Huh-7, 48 h
# Huh-7 [2] = assay: Antiproliferative activity against human HuH7 cells at 0.1 to 25 uM after 48 hrs by Hoechst 33342 staining-based assay relative to control; type: functional
SMILES,IC50 (MDA-MB-231),IC50 (Caco-2),IC50 (HCT-116),IC50 (NCI-H727),IC50 (PC-3),IC50 (Huh-7 [1]),IC50 (Fibroblast),IC50 (HaCaT),Activity (Huh-7 [2])
COc1ccccc1-c1ccc(N2CCN(C)CC2)nn1,> 25 µM,50 µM,> 25 µM,> 25 µM,> 25 µM,30 µM,> 25 µM,> 25 µM,75%
CCOC(=O)c1ccccc1-c1ccc(N2CCOCC2)nn1,> 25 µM,> 25 µM,> 25 µM,> 25 µM,> 25 µM,> 25 µM,> 25 µM,> 25 µM,–
CC(=O)c1cccc(-c2ccc(OCc3ccccc3)nn2)c1,> 25 µM,> 25 µM,> 25 µM,> 25 µM,> 25 µM,> 25 µM,> 25 µM,> 25 µM,–
CN1CCN(c2ccc(-c3cccc(C(F)(F)F)c3)nn2)CC1,> 25 µM,50 µM,> 25 µM,> 25 µM,> 25 µM,30 µM,> 25 µM,> 25 µM,75%
Fc1ccc(-c2ccc(N3CCOCC3)nn2)cc1,> 25 µM,> 25 µM,> 25 µM,> 25 µM,> 25 µM,> 25 µM,> 25 µM,> 25 µM,–
c1ccc(-c2ccc(N3CCOCC3)nn2)cc1,> 25 µM,> 25 µM,> 25 µM,> 25 µM,> 25 µM,> 25 µM,> 25 µM,> 25 µM,–
FC(F)(F)c1cccc(-c2ccc(N3CCOCC3)nn2)c1,> 25 µM,> 25 µM,> 25 µM,> 25 µM,> 25 µM,> 25 µM,> 25 µM,> 25 µM,–
c1cc(-c2ccc(N3CCOCC3)nn2)cs1,> 25 µM,> 25 µM,> 25 µM,> 25 µM,> 25 µM,> 25 µM,> 25 µM,> 25 µM,–
c1ccc(Oc2ccc(-c3ccsc3)nn2)cc1,> 25 µM,> 25 µM,> 25 µM,> 25 µM,> 25 µM,> 25 µM,> 25 µM,> 25 µM,–
c1cncc(-c2ccc(N3CCOCC3)nn2)c1,> 25 µM,> 25 µM,> 25 µM,> 25 µM,> 25 µM,> 25 µM,> 25 µM,> 25 µM,–
c1ccc2nc(-c3ccc(N4CCOCC4)nn3)ccc2c1,> 25 µM,> 25 µM,> 25 µM,> 25 µM,> 25 µM,> 25 µM,> 25 µM,> 25 µM,–
Cc1cccc(-c2ccc(N3CCOCC3)nn2)c1,> 25 µM,> 25 µM,> 25 µM,> 25 µM,> 25 µM,> 25 µM,> 25 µM,> 25 µM,–
Cc1cccc(-c2ccc(Oc3ccc(F)cc3)nn2)c1,> 25 µM,> 25 µM,> 25 µM,> 25 µM,> 25 µM,> 25 µM,> 25 µM,> 25 µM,–
COc1ccc(-c2ccc(Oc3ccccc3)nn2)cc1,> 25 µM,> 25 µM,> 25 µM,> 25 µM,> 25 µM,> 25 µM,> 25 µM,> 25 µM,–
FC(F)(F)c1cccc(-c2ccc(Oc3ccccc3)nn2)c1,> 25 µM,> 25 µM,> 25 µM,> 25 µM,> 25 µM,> 25 µM,> 25 µM,> 25 µM,–
CCOC(=O)c1cccc(-c2ccc(N3CCOCC3)nn2)c1,> 25 µM,> 25 µM,> 25 µM,> 25 µM,> 25 µM,> 25 µM,> 25 µM,> 25 µM,–

# Second part, led by results:
IC50 (MDA-MB-231),IC50 (Caco-2),IC50 (HCT-116),IC50 (NCI-H727),IC50 (PC-3),IC50 (Huh-7 [1]),SMILES,IC50 (Fibroblast),IC50 (HaCaT),Activity (Huh-7 [2])
> 25 µM,> 25 µM,> 25 µM,> 25 µM,> 25 µM,> 25 µM,CCN(CC)c1ccc(-c2cccc(C(F)(F)F)c2)nn1,> 25 µM,> 25 µM,–
> 25 µM,> 25 µM,> 25 µM,> 25 µM,> 25 µM,> 25 µM,CCOC(=O)c1ccc(-c2ccc(N3CCOCC3)nn2)cc1,> 25 µM,> 25 µM,–
> 25 µM,> 25 µM,> 25 µM,> 25 µM,> 25 µM,> 25 µM,CCCCOc1ccc(-c2ccc(C(=O)OCC)cc2)nn1,> 25 µM,> 25 µM,–
> 25 µM,> 25 µM,> 25 µM,> 25 µM,> 25 µM,> 25 µM,N#Cc1ccc(Oc2ccc(-c3ccccc3)nn2)cc1,> 25 µM,> 25 µM,–
> 25 µM,> 25 µM,> 25 µM,> 25 µM,> 25 µM,> 25 µM,CCN(CC)c1ccc(-c2ccc(C#N)cc2)nn1,> 25 µM,> 25 µM,–
> 25 µM,> 25 µM,> 25 µM,> 25 µM,> 25 µM,> 25 µM,CCOC(=O)c1ccc(-c2ccc(OC(C)C)nn2)cc1,> 25 µM,> 25 µM,–
> 25 µM,> 25 µM,> 25 µM,> 25 µM,> 25 µM,> 25 µM,CCN(CC)c1ccc(-c2cccc(Cl)c2)nn1,> 25 µM,> 25 µM,–
> 25 µM,> 25 µM,> 25 µM,> 25 µM,> 25 µM,> 25 µM,CCCCOc1ccc(-c2cccc(C#N)c2)nn1,> 25 µM,> 25 µM,–
> 25 µM,> 25 µM,> 25 µM,> 25 µM,> 25 µM,> 25 µM,CCN(CC)c1ccc(-c2cccc(C#N)c2)nn1,> 25 µM,> 25 µM,–
> 25 µM,> 25 µM,> 25 µM,> 25 µM,> 25 µM,> 25 µM,CCN(CC)c1ccc(-c2cccc(OC)c2)nn1,> 25 µM,> 25 µM,–
> 25 µM,> 25 µM,> 25 µM,> 25 µM,> 25 µM,> 25 µM,COc1ccc(-c2ccc(N3CCOCC3)nn2)cc1,> 25 µM,> 25 µM,–
> 25 µM,> 25 µM,> 25 µM,> 25 µM,> 25 µM,> 25 µM,CCOC(=O)c1ccc(-c2ccc(OCC)nn2)cc1,> 25 µM,> 25 µM,–
> 25 µM,> 25 µM,> 25 µM,> 25 µM,> 25 µM,> 25 µM,CCN(CC)c1ccc(-c2ccc(C(=O)O)cc2)nn1,> 25 µM,> 25 µM,–
